Measurements reported in patent US6534446B1, “Method to mitigate plant stress” (Emerald BioAgriculture Corporation, priority 1994, dated 2003).

Experiments:
Type in all cases: in vivo
Duckweed = test: Copper salt stress in duckweed, dry weight; settings: fifteen days of growth
[1] = tested on: Roundup Ready cotton seeds; test: Cold-induced inhibition of cotton seed germination; settings: for number of cotton seeds germinated / Fresh Wt.: 300 ppm each component; for Fresh Wt.: seedlings harvested 17 days after planting
cabbage plants = test: Heat stress in cabbage, fresh weight; settings: CaNO3 2500 ppm alone

Row | SMILES | Average Dry Weight (mg) ± SD (Duckweed; Copper 1.7 ppm) [mg] | % Change From Control (Duckweed; Copper 3.3 ppm) [%] | Average Dry Weight (mg) ± SD (Duckweed; Copper 3.3 ppm) [mg] | number of cotton seeds germinated ([1]; 5 days after planting, 59° F. (15° C.)/50° F. (10° C.), 45 seeds) | number of cotton seeds germinated ([1]; 5 days after planting, 75° F. (24° C.), 45 seeds per treatment) | number of cotton seeds germinated ([1]; 7 days after planting, 59° F. (15° C.)/50° F. (10° C.), 45 seeds) | number of cotton seeds germinated ([1]; 7 days after planting, 75° F. (24° C.), 45 seeds) | number of cotton seeds germinated ([1]; 9 days after planting, 59° F. (15° C.)/50° F. (10° C.), 45 seeds) | number of cotton seeds germinated ([1]; 9 days after planting, 75° F. (24° C.), 45 seeds) | seeds germinated, % of all seeds ([1]; 9 days after planting, low temperatures, 45 seeds per treatment) [%] | number of cotton seeds germinated ([1]; 13 days after planting, 59° F. (15° C.)/50° F. (10° C.), 45 seeds) | number of cotton seeds germinated ([1]; 13 days after planting, 75° F. (24° C.), 45 seeds) | number of cotton seeds germinated ([1]; 17 days after planting, 59° F. (15° C.)/50° F. (10° C.), 45 seeds) | number of cotton seeds germinated ([1]; 17 days after planting, 75° F. (24° C.), 45 seeds) | Fresh Wt. ([1]; 59° F. (15° C.)/50° F. (10° C.)) [g] | Fresh Wt. ([1]; 75° F. (24° C.)) [g] | Mean Fresh Weight (g) ± SD (cabbage plants; oven at 48° C. (118° F.) for twelve hours, weighed one week later) [g] | % of Room Temperature Control (cabbage plants; oven at 48° C. for twelve hours) [%]
1 | O.O.O.O.O.O=S(=O)([O-])[O-].[Cu+2] [Copper, CuSo4SH2O] | 18.0 ± 4.7 | −70 | 8.3 ± 0.7 |  |  |  |  |  |  |  |  |  |  |  |  |  |  | 
2 | O=[N+]([O-])[O-].O=[N+]([O-])[O-].[Ca+2] [CaNO3, calcium nitrate] |  |  |  | 0 | 9 | 0 | 38 | 6 | 41 | 13 | 23 | 42 | 31 | 43 | 4.01 | 8.70 | 28.8 ± 5.6 | 77
